Measured values as given in article PMC8116649 (Frontiers in Pharmacology, 2021).
Read-outs that look alike come from different tables or passages of the source.

Experiments:
[1] = cited from earlier work
[2] = biological target: ethoxyresorufin-O-deethylase; design: method as in Cai et al., 1993; details: mice liver microsomes; ref Cai et al., 1993; cited from earlier work
[3] = biological target: T1, CYP1A2 (Homo sapiens, UniProt P05177); test: Caffeine-N-demethylase assay with 14C-caffeine in human liver microsomes, IC50 determination
T1 sequence (P05177 1-516): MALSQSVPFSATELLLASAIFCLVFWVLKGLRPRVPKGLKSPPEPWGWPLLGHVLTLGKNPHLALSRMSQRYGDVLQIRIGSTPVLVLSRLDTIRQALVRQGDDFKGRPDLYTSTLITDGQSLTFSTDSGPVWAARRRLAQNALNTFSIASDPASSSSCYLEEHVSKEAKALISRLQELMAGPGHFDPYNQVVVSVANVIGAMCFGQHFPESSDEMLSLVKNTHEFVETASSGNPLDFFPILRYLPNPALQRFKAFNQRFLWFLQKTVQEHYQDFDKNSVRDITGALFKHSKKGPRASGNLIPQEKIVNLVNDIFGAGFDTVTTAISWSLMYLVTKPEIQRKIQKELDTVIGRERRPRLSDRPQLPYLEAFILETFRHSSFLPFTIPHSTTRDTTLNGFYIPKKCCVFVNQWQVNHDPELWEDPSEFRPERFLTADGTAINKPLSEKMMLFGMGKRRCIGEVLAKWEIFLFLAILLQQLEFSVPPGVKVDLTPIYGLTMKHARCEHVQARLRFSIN
Method: Incubation was conducted at 37°C in a metabolic incubator with a 60 cycles/min shaking rate. At the conclusion of 10 min incubation, the reaction was terminated by the addition of 10% TCA solution (50.0 µl). The incubation mixture was centrifuged at 4,000×g. An aliquot (300.0 µl) of the supernatant was applied to a 3.0 ml Sigma-Aldrich Superclean ENVI-Carbon solid phase extraction (SPE) tube (0.25 g, 80–100 mesh). […] The eluant was collected into a scintillation vial. After the addition of 15.0 ml scintillation cocktail, the radioactivity in the vial was counted in a liquid scintillation counter. The results were expressed as residual counts of the control incubation.
CYP 1A2 activity inhibition was plotted against log furanocoumarin concentration after normalizing the inhibition data from 0–100%. The resulting inhibition-concentration curves were fitted separately to a four-parameter logistic function to determine the IC50 values. Curve fitting was performed using the GraphPad Prism version 5.04 (GraphPad Software, San Diego, CA). The IC50 represented the concentration of the furanocoumarin chemical to evoke a half maximal inhibition of the CYP 1A2 activity.

[4] = biological target: T1, CYP1A2; test: Pre-incubation time- and furanocoumarin concentration-dependent inhibition of caffeine metabolism in HLMs; details: for KI: HLMs 1.2 mg/ml, pre-incubation with NADPH, CYP 1A2 inactivation
Method: (§1) In the pre-incubation step, HLMs (1.2 mg/ml) were pre-incubated with different furanocoumarin concentrations in the presence of NADPH for various time periods at 37°C. […] The final incubation volume was 320.0 µl. At the conclusion of a 10 min incubation, the reaction was stopped by the addition of a 10% TCA solution. The incubation mixture was extracted by a SPE tube, and the radioactivity in the eluant was counted in a liquid scintillation counter as described earlier.
(§2) The observed in vitro rate constant (kobs) was calculated using the slopes of linear regression analyses from natural logarithm (Ln) percentage remaining activity against pre-incubation time plots. The maximum inactivation rate constant (kinact) was calculated using the non-linear regression analyses of plots of the inactivator concentrations against kobs values. […] The plotting was performed using the GraphPad Prism version 5.04 (GraphPad Software, San Diego, CA).

[5] = biological target: 7-ethoxycoumarin deethylase; design: method as in Tinel et al., 1987; details: HLMs; ref Tinel et al., 1987; cited from earlier work
[6] = biological target: benzo(a)pyrene hydroxylase; design: method as in Tinel et al., 1987; details: HLMs; ref Tinel et al., 1987; cited from earlier work
[7] = Caffeine pharmacokinetics in saliva/plasma of untreated human volunteers (baseline); type: in vivo; details: caffeine 200 mg single oral dose
Method: Male human volunteers, between 21 and 30 years old and living in the Metro Vancouver area, were recruited for the study. The volunteers had to meet specific eligibility criteria: not smoking, use medication, consume alcohol heavily or have any health concerns which may affect the test results. […] The participants were also asked to refrain from consuming solid foods 3.0 h prior to the study. The study protocol was approved by the Simon Fraser University Office of Research Ethics with approval number 2012s0565 and registration number ISRCTN83028296.
This study adopted a non-randomized, single-blinded, and crossover design in which each subject acted as their own control ([Sheriffdeen et al., 2019]). […] In the ARFP extract treatment study, the same group of volunteers was used after a 4 days washout period. […] Saliva samples were collected at 0.5, 1.0, 1.5, 2.0, 2.5, 3.0, 4.0, 6.0, 8.0, 12.0, 24.0, 36.0, and 48.0 h post-dosing. All saliva samples were stored in the dark at freezing temperature until they were ready for extraction and HPLC-UV analysis.
The saliva samples were thawed at room temperature, mixed by vortexing for 30 s, and centrifuged for 10 min at 4,000×g. Exactly 200.0 µl aliquot of the saliva sample was removed and spiked with 100.0 µl of the internal standard (ISTD) benzotriazole (50.0 μg/ml). […]
The following pharmacokinetic parameters were determined: the Tmax (time to reach peak plasma level) and Cmax (concentration of peak plasma level) were determined by visual inspection. The AUC0-inf (area under plasma concentration-time curve from zero to infinity) was determined by non-compartmental analysis using the PK Solver software ([Zhang et al., 2010]). The AUC0-inf was determined using the log-linear trapezoidal rule from dosing time to last time point and extrapolated to infinity by dividing the last concentration with the elimination rate constant. The AUC ratio was calculated by dividing the AUC0-inf after ARFP extract pretreatment with the AUC0-inf before ARFP extract pretreatment.

[8] = cited from earlier work; remark: listed apart in the source
[9] = biological target: T1, CYP1A2
Method: as §1, §2

[10] = rats, cited from earlier work
[11] = biological target: human CYP 1A2 isozyme; design: method as in Kang et al., 2011; details: mechanism-based inhibition; ref Kang et al., 2011; cited from earlier work

For `COc1c2ccoc2cc2oc(=O)ccc12` [5-MOP, 5-methoxypsoralen], the Tmax ([1]; PUVA patients, ref Shephard et al., 1999) is listed as 2.8 ± 0.8 h, the Tmax ([1]; healthy humans, ref Stolk et al., 1981) is listed as 3.0 ± 0.6 h and the IC50 [2] is listed as 2.3 µM. For the same compound, the IC50 [3] was 0.13 µM, the KI [4] was 3.73 ± 3.66 µM and the kinact ([4]; human, human liver microsomes, probe caffeine (6.4 µM non-labeled + 0.2 µCi 14C-caffeine)) was 0.00583 s⁻¹.

In the case of `COc1c2occc2cc2ccc(=O)oc12` [8-MOP, 8-methoxypsoralen], the IC50 [5] is given as roughly 25 µM, the IC50 [6] is given as roughly 25 µM and the KI [4] is given as 0.78 ± 0.32 µM.

For `Cn1c(=O)c2c(ncn2C)n(C)c1=O` [Caffeine, caffeine], the “Tmax UT” value ([7]; plasma (from saliva), untreated volunteers of the study group of that line) was 0.8 h, the Cmax ([7]; male, human, plasma (calculated from saliva concentrations), po, 200 mg, untreated volunteers) was 5.1 µg/mL and the AUC(0-inf) ([7]; male, human, plasma (calculated from saliva concentrations), po, 200 mg, untreated volunteers, read-out: AUC0-inf UT) was 33.5 to 55.8 µg·h/mL. For the same compound, the AUC ([8]; 12 human volunteers, 167 mg orally, ref Fuhr et al., 1993) was 28.5 ± 14.9 µg·h/mL, the AUC ([8]; healthy volunteers, 5 mg/kg dose, mean ± SD, ref Kamimori et al., 1995) was 60.8 ± 23.7 µg·h/mL and the “Time to reach the peak concentration in the blood” value ([8]; single oral dose, ref Tang-Liu et al., 1983) was no more than 1.0 h.

For `COc1c2ccoc2c(OC)c2oc(=O)ccc12` [ISOP, isopimpinellin], the KI [9] is listed as 4.48 ± 0.56 µM, the Tmax ([10]; oral dose of C. monnieri herbal product, ref Li et al., 2014) is listed as 1.1 ± 0.3 h and the Tmax ([10]; oral dose of Toddalia asiatica herbal product, ref Liu et al., 2012) is listed as 1.3 ± 0.3 h. For the same compound, the IC50 [2] was 1.9 µM, the KI [11] was 1.2 µM and the kinact [11] was 0.34 min⁻¹. The IC50 [3] was 0.29 µM.
